Source: US11331327B2, “Antibacterial use of halogenated salicylanilides” (UNION therapeutics A/S, priority 2014, dated 2022)
≈ marks a conversion by molar mass, not a printed value. Where two headings read alike, the source gives them in different places.

System: S. aureus clinical isolates and S. aureus ATCC 29213
Test: MIC assay according to CLSI criteria, Example 2, S. aureus strains
Format: cell-based, Staphylococcus aureus
Settings: for MIC: Staphylococcus aureus, read-out: MIC
Protocol: Strains were conserved in Luria Bertani (LB) Broth (S. aureus) or Brain Heart Infusion (BHI) (S. pyogenes) supplemented with glycerol 15% (v/v) at −80° C., and reactivated by isolation on LB (S. aureus) or BHI (S. pyogenes) agar plates. Strains were cultivated in Mueller Hinton (MH) Broth-cation adjusted (S. aureus) or BHI (S. pyogenes). All strains were cultivated aerobically (microaerobically for S. pyogenes strains) at 37° C.
Bacterial cultures were stopped in their exponential growth phase and plates were inoculated with the approximate concentration of 5×10^5 cells per well. Plates were incubated at 37° C. for 18 hours (S. aureus) or 24 hours (S. pyogenes).

[1] = ATCC29213, Staphylococcus aureus strains
[2] = S. aureus strains with MIC 0.5 μg/ml

O=C(Nc1ccc([N+](=O)[O-])cc1Cl)c1cc(Cl)ccc1O [Niclosamide, 5-chloro-N-(2-chloro-4-nitrophenyl)-2-hydroxybenz-amide]
MIC50 [1]: 0.25 µg/mL (≈ 0.764 µM) | MIC90 [1]: 0.5 µg/mL (≈ 1.53 µM) | MIC distribution (percentage of strains) [2]: 27% | MIC distribution (ratio of strains) [2]: (55/205) | MIC Range values (Staphylococcus aureus strains): 0.125 to 0.5 µg/mL | MIC (ATCC29213, all targeted S. aureus strains, including resistant strains): ≤ 0.5 µg/mL | MIC (ATCC29213, strain 9-1862936): 0.5 µg/mL (≈ 1.53 µM) | MIC (ATCC29213, strain 9-2625962): 0.5 µg/mL (≈ 1.53 µM) | MIC (ATCC29213, strain 9-2642158): 0.25 µg/mL (≈ 0.764 µM) | MIC (ATCC29213, strain 9-2955245): 0.25 µg/mL (≈ 0.764 µM) | MIC (ATCC29213, strain 9-26422166): 0.5 µg/mL (≈ 1.53 µM) | MIC (ATCC29213, strain 000040C): 0.5 µg/mL (≈ 1.53 µM) | MIC (ATCC29213, strain 000041C): 0.25 µg/mL (≈ 0.764 µM) | MIC (ATCC29213, strain 000274T): 0.25 µg/mL (≈ 0.764 µM) | MIC (ATCC29213, strain 114660U): 0.25 µg/mL (≈ 0.764 µM) | MIC (ATCC29213, strain 115015T): 0.5 µg/mL (≈ 1.53 µM) | MIC (ATCC29213, strain 115242C): 0.5 µg/mL (≈ 1.53 µM) | MIC (ATCC29213, strain 115263C): 0.25 µg/mL (≈ 0.764 µM) | MIC (ATCC29213, strain 115268C): 0.5 µg/mL (≈ 1.53 µM) | MIC (ATCC29213, strain 115273C): 0.5 µg/mL (≈ 1.53 µM) | MIC (ATCC29213, strain 115295C): 0.25 µg/mL (≈ 0.764 µM) | MIC (ATCC29213, strain 115303C): 0.5 µg/mL (≈ 1.53 µM) | MIC (ATCC29213, strain 115370U): 0.25 µg/mL (≈ 0.764 µM) | MIC (ATCC29213, strain 115427C): 0.25 µg/mL (≈ 0.764 µM) | MIC (ATCC29213, strain 115445C): 0.5 µg/mL (≈ 1.53 µM) | MIC (ATCC29213, strain 115561C): 0.25 µg/mL (≈ 0.764 µM) | MIC (ATCC29213, strain 115584D): 0.25 µg/mL (≈ 0.764 µM) | MIC (ATCC29213, strain 115628T): 0.25 µg/mL (≈ 0.764 µM) | MIC (ATCC29213, strain 115690C): 0.25 µg/mL (≈ 0.764 µM) | MIC (ATCC29213, strain 115691T): 0.5 µg/mL (≈ 1.53 µM) | MIC (ATCC29213, strain 115740E): 0.5 µg/mL (≈ 1.53 µM) | MIC (ATCC29213, strain 115810E): 0.25 µg/mL (≈ 0.764 µM) | MIC (ATCC29213, strain 115903T): 0.5 µg/mL (≈ 1.53 µM) | MIC (ATCC29213, strain 116122T): 0.25 µg/mL (≈ 0.764 µM) | MIC (ATCC29213, strain ATCC 29213): 0.5 µg/mL (≈ 1.53 µM) | MIC (ATCC29213, strain E5-1029252): 0.25 µg/mL (≈ 0.764 µM) | MIC (ATCC29213, strain E5-1029558): 0.25 µg/mL (≈ 0.764 µM) | MIC (ATCC29213, strain E5-1030440): 0.25 µg/mL (≈ 0.764 µM) | MIC (ATCC29213, strain E5-1030469): 0.25 µg/mL (≈ 0.764 µM) | MIC (ATCC29213, strain E5-1030472): 0.5 µg/mL (≈ 1.53 µM) | MIC (ATCC29213, strain E5-1030482): 0.125 µg/mL (≈ 0.382 µM) | MIC (ATCC29213, strain E5-1033076 (first line, r202)): 0.5 µg/mL (≈ 1.53 µM) | MIC (ATCC29213, strain E5-1033076 (second line, r203)): 0.5 µg/mL (≈ 1.53 µM) | MIC (ATCC29213, strain E5-1033088): 0.25 µg/mL (≈ 0.764 µM) | MIC (ATCC29213, strain E5-1033091): 0.5 µg/mL (≈ 1.53 µM) | MIC (ATCC29213, strain E5-1035277): 0.5 µg/mL (≈ 1.53 µM) | MIC (ATCC29213, strain E5-1035284): 0.25 µg/mL (≈ 0.764 µM) | MIC (ATCC29213, strain E5-1035775): 0.5 µg/mL (≈ 1.53 µM) | MIC (ATCC29213, strain E5-1035779): 0.5 µg/mL (≈ 1.53 µM) | MIC (ATCC29213, strain E5-1037958): 0.5 µg/mL (≈ 1.53 µM) | MIC (ATCC29213, strain E5-1037971): 0.25 µg/mL (≈ 0.764 µM) | MIC (ATCC29213, strain E5-1038279): 0.5 µg/mL (≈ 1.53 µM) | MIC (ATCC29213, strain E5-1038286): 0.25 µg/mL (≈ 0.764 µM) | MIC (ATCC29213, strain E5-1038294): 0.5 µg/mL (≈ 1.53 µM) | MIC (ATCC29213, strain E5-1039684): 0.5 µg/mL (≈ 1.53 µM) | MIC (ATCC29213, strain E5-1039697): 0.25 µg/mL (≈ 0.764 µM) | MIC (ATCC29213, strain E5-1041977): 0.5 µg/mL (≈ 1.53 µM) | MIC (ATCC29213, strain E5-1041979): 0.5 µg/mL (≈ 1.53 µM) | MIC (ATCC29213, strain E5-1041980): 0.25 µg/mL (≈ 0.764 µM) | MIC (ATCC29213, strain E5-1041987): 0.5 µg/mL (≈ 1.53 µM) | MIC (ATCC29213, strain E5-1043184): 0.5 µg/mL (≈ 1.53 µM) | MIC (ATCC29213, strain E5-1043668): 0.25 µg/mL (≈ 0.764 µM) | MIC (ATCC29213, strain E5-1045179): 0.25 µg/mL (≈ 0.764 µM) | MIC (ATCC29213, strain E5-1046019): 0.25 µg/mL (≈ 0.764 µM) | MIC (ATCC29213, strain E5-1046020): 0.5 µg/mL (≈ 1.53 µM) | MIC (ATCC29213, strain E5-1046039): 0.25 µg/mL (≈ 0.764 µM) | MIC (ATCC29213, strain E5-1046070): 0.25 µg/mL (≈ 0.764 µM) | MIC (ATCC29213, strain E5-1046074): 0.25 µg/mL (≈ 0.764 µM) | MIC (ATCC29213, strain E5-1046085): 0.5 µg/mL (≈ 1.53 µM) | MIC (ATCC29213, strain E5-1046096): 0.5 µg/mL (≈ 1.53 µM) | MIC (ATCC29213, strain E5-1046296): 0.5 µg/mL (≈ 1.53 µM) | MIC (ATCC29213, strain E5-1046297): 0.5 µg/mL (≈ 1.53 µM) | MIC (ATCC29213, strain E5-1046298): 0.25 µg/mL (≈ 0.764 µM) | MIC (ATCC29213, strain E5-1046723): 0.25 µg/mL (≈ 0.764 µM) | MIC (ATCC29213, strain E5-1047585): 0.25 µg/mL (≈ 0.764 µM) | MIC (ATCC29213, strain E5-1047606): 0.5 µg/mL (≈ 1.53 µM) | MIC (ATCC29213, strain E5-1047924): 0.5 µg/mL (≈ 1.53 µM) | MIC (ATCC29213, strain E5-1048204): 0.25 µg/mL (≈ 0.764 µM) | MIC (ATCC29213, strain E5-1048428): 0.25 µg/mL (≈ 0.764 µM) | MIC (ATCC29213, strain E5-1048654): 0.25 µg/mL (≈ 0.764 µM) | MIC (ATCC29213, strain E5-1048670): 0.125 µg/mL (≈ 0.382 µM) | MIC (ATCC29213, strain EEFIC 01): 0.25 µg/mL (≈ 0.764 µM) | MIC (ATCC29213, strain EEFIC 02): 0.25 µg/mL (≈ 0.764 µM) | MIC (ATCC29213, strain K000772): 0.25 µg/mL (≈ 0.764 µM) | MIC (ATCC29213, strain K000796): 0.25 µg/mL (≈ 0.764 µM) | MIC (ATCC29213, strain K000863): 0.25 µg/mL (≈ 0.764 µM) | MIC (ATCC29213, strain K000864): 0.25 µg/mL (≈ 0.764 µM) | MIC (ATCC29213, strain K000866): 0.25 µg/mL (≈ 0.764 µM) | MIC (ATCC29213, strain K115498): 0.25 µg/mL (≈ 0.764 µM) | MIC (ATCC29213, strain K115688): 0.25 µg/mL (≈ 0.764 µM) | MIC (ATCC29213, strain K115689): 0.25 µg/mL (≈ 0.764 µM) | MIC (ATCC29213, strain R000019): 0.5 µg/mL (≈ 1.53 µM) | MIC (ATCC29213, strain R000020): 0.5 µg/mL (≈ 1.53 µM) | MIC (ATCC29213, strain R000024): 0.25 µg/mL (≈ 0.764 µM) | MIC (ATCC29213, strain U115579): 0.25 µg/mL (≈ 0.764 µM) | MIC (ATCC 29213 / MRSA, strain MRSA 01): 0.25 µg/mL (≈ 0.764 µM) | MIC (ATCC 29213 / MRSA, strain MRSA 02): 0.25 µg/mL (≈ 0.764 µM) | MIC (ATCC 29213 / MRSA, strain MRSA 03): 0.25 µg/mL (≈ 0.764 µM) | MIC (ATCC 29213 / MRSA, strain MRSA 04): 0.25 µg/mL (≈ 0.764 µM) | MIC (ATCC 29213 / MRSA, strain MRSA 05): 0.25 µg/mL (≈ 0.764 µM) | MIC (ATCC 29213 / MRSA, strain MRSA 06): 0.25 µg/mL (≈ 0.764 µM) | MIC (ATCC 29213 / MRSA, strain MRSA 07): 0.125 µg/mL (≈ 0.382 µM) | MIC (ATCC 29213 / MRSA, strain MRSA 08): 0.25 µg/mL (≈ 0.764 µM) | MIC (ATCC 29213 / MRSA, strain MRSA 09): 0.125 µg/mL (≈ 0.382 µM) | MIC (ATCC 29213 / MRSA, strain MRSA 10): 0.25 µg/mL (≈ 0.764 µM) | MIC (ATCC 29213 / MRSA, strain MRSA 11): 0.25 µg/mL (≈ 0.764 µM)
